Measured values as given in US8163737B2 (Vertex Pharmaceuticals Incorporated, priority 2006, dated 2012).

Target: endogenous CGRP receptor (Homo sapiens, UniProt O60894+Q16602)
Experiment: CGRP functional antagonism using SK-N-MC-BLA (4C10), β-lactamase transcriptional reporter assay
Format: cell-based
Conditions: SK-N-MC (4C10) cells, inhibition of β-lactamase expression in the presence of 200 pM CGRP
Source text: Measuring CGRP Functional Antagonism Using SK-N-MC-BLA (4C10):
CGRP functional antagonism was characterized in a cell based transcriptional assay using a recombinant SK-N-MC line. To introduce the transcriptional reporter system, SK-N-MC cell line was transduced with a retroviral vector containing β-lactamase gene downstream of cAMP responsive promoter. The expression of β-lactamase is triggered by cAMP increase that is a downstream event of activation of endogenous CGRP receptor. Single clones were separated using Fluorescent Activated Cell Sorting (FACS) based on CGRP induced β-lactamase activity. β-lactamase activity was measured using a fluorescence energy transfer (FRET) dye, CCF4. […] To evaluate functional antagonist activity of compounds in SK-N-MC (4C10) line, compounds were evaluated for their inhibition of β-lactamase expression in the presence of CGRP.
SK-N-MC (4C10) was cultured in Minimal Essential Media (MEM) (Invitrogen) supplemented with 1 mM non-essential amino acids solution (Invitrogen), 100 units/ml Penicillin-Streptomycin (Invitrogen), 1 mM sodium pyruvate (Invitrogen) and 10% fetal bovine serum. For the β-lactamase assay, low serum, 1% FBS in MEM was used. 30,000 cells were plated into each wells of poly-D-lysine coated 384-well plate (Becton Dickinson) a day prior to the assay. SK-N-MC (4C10) was preincubated with compounds for 30 min before the addition of 200 pM CGRP. The assay was incubated for 3 hours at 37° C. to allow β-lactamase expression. CCF4 dye was added and incubated for 2 hours at room temperature. […] Curve fitting and IC50 calculation were carried about using MOD3.

Sequence of endogenous CGRP receptor (Q16602 23-461): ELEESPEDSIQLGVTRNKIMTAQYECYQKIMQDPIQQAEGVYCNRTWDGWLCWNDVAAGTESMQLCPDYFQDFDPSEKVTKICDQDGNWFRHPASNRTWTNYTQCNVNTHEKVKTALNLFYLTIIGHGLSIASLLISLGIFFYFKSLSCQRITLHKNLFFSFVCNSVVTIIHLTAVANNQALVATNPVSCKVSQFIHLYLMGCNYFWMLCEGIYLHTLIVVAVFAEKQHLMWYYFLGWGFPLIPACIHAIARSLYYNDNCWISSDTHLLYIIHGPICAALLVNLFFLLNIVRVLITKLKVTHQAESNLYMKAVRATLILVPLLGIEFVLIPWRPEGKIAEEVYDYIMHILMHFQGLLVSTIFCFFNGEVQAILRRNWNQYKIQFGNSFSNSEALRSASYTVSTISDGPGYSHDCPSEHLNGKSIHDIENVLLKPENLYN
Sequence of endogenous CGRP receptor (O60894 27-148): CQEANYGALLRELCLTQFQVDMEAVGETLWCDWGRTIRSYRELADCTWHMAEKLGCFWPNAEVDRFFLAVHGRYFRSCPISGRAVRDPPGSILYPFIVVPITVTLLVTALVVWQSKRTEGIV

IC50 | SMILES
< 1000 nM | O=C(CC1SC(c2ccccc2)N(CC2CC2)C1=O)N1CCC(N2CCc3ccccc3NC2=O)CC1 (stereo not shown) [Compound 138]
1000 to 5000 nM | COc1cccc(C2SC(CC(=O)N3CCC(N4Cc5ccccc5NC4=O)CC3)C(=O)N2CCC(C)C)c1 (stereo not shown) [Compound 139]
> 5000 nM | CC(=O)C1(c2ccccc2)CCN(C(=O)CC2SC(c3ccccc3)N(CCC(C)C)C2=O)CC1 (stereo not shown) [Compound 141]
> 5000 nM | CC(=O)Nc1ccc(C)cc1C1(O)CCN(C(=O)CC2SC(c3ccccc3)N(CCC(C)C)C2=O)CC1 (stereo not shown) [Compound 143]
> 5000 nM | CCC1SC(CC(=O)N2CCC(n3cc(-c4ccccc4)[nH]c3=O)CC2)C(=O)N1CC1CC1 (stereo not shown) [Compound 146]
< 1000 nM | CCC(CC)C1SC(CC(=O)N2CCC(N3Cc4ccccc4NC3=O)CC2)C(=O)N1CCC(C)C (stereo not shown) [Compound 151]
< 1000 nM | CC(C)CCN1C(=O)C(CC(=O)N2CCC(N3CCc4ccccc4NC3=O)CC2)SC1c1ccccc1N(C)C (stereo not shown) [Compound 152]
< 1000 nM | CC(C)(C)CCN1C(=O)C(CC(=O)N2CCC(N3Cc4ccccc4NC3=O)CC2)SC12CCCCCC2 (stereo not shown) [Compound 154]
< 1000 nM | CC(C)CCN1C(=O)C(CC(=O)N2CCC(N3CCc4ccccc4NC3=O)CC2)SC1c1ccc(F)c(F)c1 (stereo not shown) [Compound 155]
< 1000 nM | CC(C)CCN1C(=O)C(C(C)C(=O)N2CCC(N3Cc4ccccc4NC3=O)CC2)SC1c1ccccc1 (stereo not shown) [Compound 156, 3-(1-(2-(3-Isopentyl-4-oxo-2-phenylthiazolidin-5-yl)propanoyl)piperidin-4-yl)-3,4-dihydroquinazolin-2(1H)-one]
> 5000 nM | CC(=O)N1CCC2(CCN(C(=O)CC3SC(c4ccccc4)N(CCC(C)C)C3=O)CC2)c2ccccc21 (stereo not shown) [Compound 157]
1000 to 5000 nM | CC(C)CCN1C(=O)C(CC(=O)N2CCC(N3Cc4ccccc4NC3=O)CC2)SC1c1ccc(Cl)cc1 (stereo not shown) [Compound 158]
< 1000 nM | CN1CCN(c2ccccc2[C@@H]2SC(CC(=O)N3CCC(n4c(=O)[nH]c5ccccc54)CC3)C(=O)N2CCC(C)(C)C)CC1 (stereo partly shown) [Compound 161]
1000 to 5000 nM | O=C(CC1SC(c2ccccc2F)N(CC2CCCCC2)C1=O)N1CCC(N2CCc3ccccc3NC2=O)CC1 (stereo not shown) [Compound 164]
< 1000 nM | CC(C)CCN1C(=O)C(CC(=O)N2CCC(N3Cc4ccccc4NC3=O)CC2)SC1c1c(F)cccc1Cl (stereo not shown) [Compound 166]
> 5000 nM | CC(C)CCN1C(=O)C(CC(=O)N2CCC3(CCc4ccccc43)CC2)SC1c1ccccc1 (stereo not shown) [Compound 167]
1000 to 5000 nM | CC(C)(C)CCN1C(=O)C(CC(=O)N2CCC(N3Cc4ccccc4NC3=O)CC2)SC1c1cccc2cc[nH]c12 (stereo not shown) [Compound 168]
1000 to 5000 nM | CCN1C(=O)C(CC(=O)N2CCC(N3Cc4ccccc4NC3=O)CC2)SC1c1ccccc1 (stereo not shown) [Compound 177]
1000 to 5000 nM | COC(=O)[C@@H](CC(C)C)N1C(=O)C(CC(=O)N2CCC(N3Cc4ccccc4NC3=O)CC2)SC1c1ccccc1 (stereo partly shown) [Compound 178]
< 1000 nM | Cc1cc(C2SC(CC(=O)N3CCC(N4Cc5ccccc5NC4=O)CC3)C(=O)N2CCC(C)(C)C)cc2cn[nH]c12 (stereo not shown) [Compound 179]
1000 to 5000 nM | CC(C)CCN1C(=O)C(CC(=O)N2CCC(N3CCc4ccccc4NC3=O)CC2)SC1[C@H](C)c1ccccc1 (stereo partly shown) [Compound 180]

IC50 | SMILES
< 1000 nM | CC1=CCCC(C)C1C1SC(CC(=O)N2CCC(N3CCc4ccccc4NC3=O)CC2)C(=O)N1CCC(C)C (stereo not shown) [Compound 181]
< 1000 nM | O=C(CC1SC(c2ccccc2)N(Cc2cccnc2)C1=O)N1CCC(N2CCc3ccccc3NC2=O)CC1 (stereo not shown) [Compound 185]
> 5000 nM | CC(C)CCN1C(=O)C(CC(=O)N2CCC3(CC2)C(=O)NCN3c2ccccc2)SC1c1ccccc1 (stereo not shown) [Compound 186]
> 5000 nM | O=C(CC1SC(Cc2ccccc2)N(CC(F)(F)F)C1=O)N1CCC(n2cc(-c3ccccc3)[nH]c2=O)CC1 (stereo not shown) [Compound 189]
< 1000 nM | O=C(CC1SC(c2ccccc2)N(CCC(F)(F)F)C1=O)N1CCC(N2Cc3ccccc3NC2=O)CC1 (stereo not shown) [Compound 191]
< 1000 nM | CCCC1SC(CC(=O)N2CCC(N3Cc4ccccc4NC3=O)CC2)C(=O)N1CCC(C)C (stereo not shown) [Compound 192]
1000 to 5000 nM | CC(C)CCN1C(=O)C(CC(=O)N2CCC(N3Cc4ccccc4NC3=O)CC2)SC12CCOCC2 (stereo not shown) [Compound 196]
> 5000 nM | CC(C)CCN1C(=O)C(CC(=O)N2CCC(N3Cc4ccccc4NC3=O)CC2)SC1c1ccc(C(C)(C)C)cc1 (stereo not shown) [Compound 197]
> 5000 nM | CC(C)CCN1C(=O)C(CC(=O)N2CCC(NC(=O)Nc3ccccn3)CC2)SC1c1ccccc1 (stereo not shown) [Compound 200]
1000 to 5000 nM | CC(C)CCN1C(=O)C(CC(=O)N2CCC(N3Cc4ccccc4NC3=O)CC2)SC1C1CCOCC1 (stereo not shown) [Compound 201]
1000 to 5000 nM | COC(=O)[C@H](CC(C)C)N1C(=O)C(CC(=O)N2CCC(N3Cc4ccccc4NC3=O)CC2)SC1c1ccccc1 (stereo partly shown) [Compound 205]
< 1000 nM | Cc1cc(C2SC(CC(=O)N3CCC(N4CCc5ccccc5NC4=O)CC3)C(=O)N2CCC(C)C)cc2cn[nH]c12 (stereo not shown) [Compound 206]
< 1000 nM | CCC(CC)C1SC(CC(=O)N2CCC(N3CCc4ccccc4NC3=O)CC2)C(=O)N1CCC(C)C (stereo not shown) [Compound 207]
< 1000 nM | CC(C)CCN1C(=O)C(CC(=O)N2CCC(N3Cc4ccccc4NC3=O)CC2)SC1C1CCCOC1 (stereo not shown) [Compound 209]
< 1000 nM | O=C(CC1SC(c2c(F)cccc2F)N(CC2CCCCC2)C1=O)N1CCC(N2Cc3ccccc3NC2=O)CC1 (stereo not shown) [Compound 210]
1000 to 5000 nM | CC(=O)Nc1ccc(C2SC(CC(=O)N3CCC(N4Cc5ccccc5NC4=O)CC3)C(=O)N2CCC(C)C)cc1 (stereo not shown) [Compound 213]
1000 to 5000 nM | CC(C)CC(CO)N1C(=O)C(CC(=O)N2CCC(N3CCc4ccccc4NC3=O)CC2)SC1c1ccccc1 (stereo not shown) [Compound 214]
< 1000 nM | CC(C)CCN1C(=O)C(CC(=O)N2CCC(N3CCc4ccccc4NC3=O)CC2)SC1c1ccccc1N1CCCCC1 (stereo not shown) [Compound 215]
< 1000 nM | CC(C)(C)CCN1C(=O)C(CC(=O)N2CCC(N3CCc4ccccc4NC3=O)CC2)SC1c1c(F)cccc1F (stereo not shown) [Compound 217]
> 5000 nM | CCC1SC(CC(=O)N2CCC(n3c(=O)[nH]c4ccccc43)CC2)C(=O)N1CC(F)(F)F (stereo not shown) [Compound 218]
1000 to 5000 nM | CC(C)CCN1C(=O)C(CC(=O)N2CCC(N3Cc4ccccc4NC3=O)CC2)SC1c1cccc(C(F)(F)F)c1F (stereo not shown) [Compound 219]

IC50 | SMILES
< 1000 nM | CC(C)CCN1C(=O)C(CC(=O)N2CCC(N3CCc4ccccc4NC3=O)CC2)SC1c1c(F)cccc1Cl (stereo not shown) [Compound 221]
< 1000 nM | Cc1ccc(C2SC(CC(=O)N3CCC(N4Cc5ccccc5NC4=O)CC3)C(=O)N2CCC(C)C)c(C)c1 (stereo not shown) [Compound 222]
> 5000 nM | CC(C)CCN1C(=O)C(CC(=O)N2CCC3(CC2)OC(=O)Nc2ccccc23)SC1c1ccccc1 (stereo not shown) [Compound 223]
1000 to 5000 nM | COc1ccc(C2SC(CC(=O)N3CCC(N4Cc5ccccc5NC4=O)CC3)C(=O)N2CCC(C)C)cc1OC (stereo not shown) [Compound 228]
< 1000 nM | O=C(CC1SC(c2ccccc2)N(CCc2ccccc2)C1=O)N1CCC(N2CCc3ccccc3NC2=O)CC1 (stereo not shown) [Compound 231]
1000 to 5000 nM | CC(C)CCN1C(=O)C(CC(=O)N2CCC(N3Cc4ccccc4NC3=O)CC2)SC1c1ccc2c(c1)OCCN2C (stereo not shown) [Compound 232]
< 1000 nM | O=C(CC1SC(c2ccccc2)N(CC(F)(F)C(F)(F)F)C1=O)N1CCC(N2CCc3ccccc3NC2=O)CC1 (stereo not shown) [Compound 233]
< 1000 nM | CC(C)(C)CCN1C(=O)C(CC(=O)N2CCC(N3Cc4ccccc4NC3=O)CC2)SC1c1ccc(F)cc1F (stereo not shown) [Compound 234]
1000 to 5000 nM | CC(C)(C)CCN1C(=O)C(CC(=O)N2CCC(N3Cc4ccccc4NC3=O)CC2)SC1c1ccccc1N1CCCCC1 (stereo not shown) [Compound 235]
1000 to 5000 nM | CC(C)C[C@H](CO)N1C(=O)C(CC(=O)N2CCC(N3Cc4ccccc4NC3=O)CC2)SC1c1ccccc1 (stereo partly shown) [Compound 238]
< 1000 nM | CC(C)CCN1C(=O)C(CC(=O)N2CCC(N3CCc4ccccc4NC3=O)CC2)SC1C1CCCOC1 (stereo not shown) [Compound 239]
1000 to 5000 nM | CC(C)CCN1C(=O)C(CC(=O)N2CCC(N3Cc4ccccc4NC3=O)CC2)SC12C=CC(C)(C)CC2 (stereo not shown) [Compound 241]
1000 to 5000 nM | CC(C)CCN1C(=O)C(CC(=O)N2CCC(N3Cc4ccccc4NC3=O)CC2)SC1c1ccc(Br)cc1 (stereo not shown) [Compound 242]
1000 to 5000 nM | COC(=O)[C@@H](CC1CCCCC1)N1C(=O)C(CC(=O)N2CCC(N3CCc4ccccc4NC3=O)CC2)SC1c1ccccc1 (stereo partly shown) [Compound 243]
> 5000 nM | CC(C)CC1SC(CC(=O)N2CCC(N3CCc4ccccc4NC3=O)CC2)C(=O)N1CCc1ccncc1 (stereo not shown) [Compound 245]
< 1000 nM | CC(C)CCN1C(=O)C(CC(=O)N2CCC(N3Cc4ccccc4NC3=O)CC2)SC1c1ccccc1OCc1ccccc1 (stereo not shown) [Compound 246]
1000 to 5000 nM | CC(C)CCN1C(=O)C(CC(=O)N2CCC(N3CCc4ccccc4NC3=O)CC2)SC1c1cccc(OC(F)(F)C(F)F)c1 (stereo not shown) [Compound 247]
< 1000 nM | CC(C)CCN1C(=O)C(CC(=O)N2CCC(c3cc4ccccc4[nH]c3=O)CC2)SC1c1ccccc1 (stereo not shown) [Compound 249]
> 5000 nM | COCC(C)N1C(=O)C(CC(=O)N2CCC(N3Cc4ccccc4NC3=O)CC2)SC1c1ccccc1 (stereo not shown) [Compound 250]
